Test results from publication PMC8466300, “Investigating the Central Nervous System Disposition of Actinomycin D: Implementation and Evaluation of Cerebral Microdialysis and Brain Tissue Measurements Supported by UPLC-MS/MS Quantification” (Pharmaceutics, 2021).
Values joined by “and” are separate entries in the source; they are usually repeats but may differ in a detail not shown here. Equal values may be shown once. Read-outs that look alike come from different tables or passages of the source. *1 amine or outer side, *2 acyl side, *3 side chain or, on linkers, in order; H or OH if unused. Where a SMILES comes first, the peptide text is derived from it. Bridges are numbered along the chain shown (N, C = ends). Roman numbers before positions name the chains, in order. [ ]: non-standard residue; d: D form. Actinocin(9to1) = Cc1c2oc3c(C)ccc(C(=O)[*:1])c3nc-2c(C(=O)[*:2])c(N)c1=O; NMeV = CN[C@H](C(=O)O)C(C)C; Sar = CNCC(=O)O

Tests used:
[1] = Plasma and brain tissue concentrations after intravenous bolus injection (CNS disposition); format: in vivo, mice; settings: for Brain-to-Plasma Ratio: total concentrations
Experimental: The experiments were carried out in accordance with the European regulations for care and use of laboratory animals (2010/63/EU) under the German license number G-187/18 and the internal reference number DKFZ374, approved by the responsible regional council (Regierungspräsidium Karlsruhe, Germany). Female 8-week-old NSG mice (NOD.Cg-Prkdc^scid Il2rg^tm1Wjl/SzJ-NOD-SCID gamma-mice) with a weight of approximately 25 g were used for the studies. For microdialysis experiments, a microdialysis guide cannula was stereotactically implanted into the right striatum and stabilized with screws and dental acrylic cement. Mice received analgesia (metamizole) and anesthesia with isoflurane during surgery. After six days of recovery, the microdialysis procedure was initiated. A microdialysis probe (CMA7, 1 mm, molecular cut-off 55 kDa, CMA Microdialysis AB, Kist, Sweden) was inserted through the guide cannula and connected to a pump system operating at a constant flow rate of 0.5 µL/min Ringer-1 % bovine serum albumin (BSA) solution. Throughout the study, mice could freely move. Microdialysis samples were serially collected each hour. Because the number of blood collections in individual mice is limited, we estimated the optimal timepoints for a pharmacokinetic feasibility study by allometric simulation of actinomycin D’s pharmacokinetic profile in mice according to published data in humans. For the allometric simulation, mouse plasma pharmacokinetic profiles were simulated by allometrically scaling the clearance and volumes parameters using classic exponents (0.75 for clearances and 1 for volumes) […], based on 0.5 mg/kg dosage. […] Therefore, we chose to take blood samples 0.75, 6, and 22 h after intravenous bolus injection into the tail vein for the assay’s feasibility pharmacokinetic experiment. Three animals received an intravenous bolus injection of 0.5 mg/kg actinomycin D in 0.125 mL per mouse (25 g) of a 0.1 mg/mL dosing solution. This dosage corresponds to the usual therapy protocols in humans according to allometric scaling. Full blood samples were transferred into citrate tubes (Sarstedt, Germany) and centrifuged at 1600× g for 10 min to generate plasma samples, which were stored at −80 °C until analysis. For determination of actinomycin D disposition in the CNS, brain tissue, and plasma samples were harvested following euthanasia with increasing concentrations of CO2 at 2 h (three animals) or 22 h (four animals) after intravenous bolus injection of 0.5 mg/kg actinomycin D. Samples were stored at −80 °C until analysis. For validation of the UPLC-MS/MS quantification, blank plasma from 6 naïve mice was used and blank brain tissue was obtained from 2 unexposed mice. Whole brain tissue was homogenized using a Bead Ruptor 4 homogenizer (Omni International Inc, Kennesaw, GA, USA) in acetonitrile (ACN)/water (1/19, v/v) + 0.5 % Triton X and 0.1 % formic acid (FA) (100 mg brain tissue/mL) in 2.0 mL tubes containing ~25 glass beads (0.75–1 mm; Carl Roth GmbH, Karlsruhe, Germany) for 2 × 1 min.
For protein precipitation of plasma microsamples, an excess of ACN (50 µL) with 0.1% FA containing the IS was applied to an Impact® 96-well protein precipitation plate (Phenomenex, Torrance, CA, USA). Subsequently, 20 µL of the plasma samples were added and the plates sealed and shaken for 1 min. Brain tissue homogenate samples were processed accordingly. For protein depletion, samples were filtered into a 96-well collection plate (Waters, Milford, MA, USA) by applying positive pressure with a 96-well positive pressure unit (Waters, Milford, MA, USA) operated with air overpressure of 5 psi. After addition of 40 µL of water containing 0.1% FA, the collection plates were sealed, shaken, and extracts injected onto the UPLC system.

[2] = N = 3, UPLC-MS/MS; for Freeze-and-thaw stability, accuracy: plasma, three freeze-and-thaw cycles separated by at least 24 h
Experimental: Accuracy was calculated as the percentage of the ratio of the mean determined concentration in individual analytical runs and the nominal value. Precision was expressed in percent and is defined as the coefficient of variation of the measured sample concentrations at each QC level. Three validation runs were analyzed, each containing eight calibration samples in duplicate determination and four QC samples at LLOQ, and low, mid, and high QC concentration in six replicates. Selectivity was evaluated using blank plasma samples from six naïve mice and brain tissue homogenates from two mice. Extraction recovery was calculated from peak areas after extraction from the QC samples divided by the respective peak areas obtained from blank plasma spiked after extraction. Matrix effects were evaluated by comparison of the peak areas of the blank plasma samples spiked after extraction with the respective peak areas of matrix-free UPLC solvent samples spiked with the identical amount. Stability of the analyte was tested in three freeze-and-thaw cycles separated by at least 24 h, in plasma samples stored for 1 month at −25 °C, in microdialysate stored at room temperature for 2 d, and in extracts left in the autosampler for 24 h. Additionally, an incurred sample reanalysis was performed for all plasma samples with sufficient volume for reanalysis.

[3] = two patients, three hours after intravenous administration; cited from earlier work
Text: However, in this earlier study, actinomycin D was quantified in cerebrospinal fluid three hours after intravenous administration, i.e., in a protein-poor compartment that is also separated from blood and tissue by active barriers. […] In a more recent study in m ...

Cc1c2oc3c(C)ccc(C(=O)N[C@@H]4C(=O)N[C@H](C(C)C)C(=O)N5CCC[C@H]5C(=O)N(C)CC(=O)N(C)[C@@H](C(C)C)C(=O)O[C@@H]4C)c3nc-2c(C(=O)N[C@@H]2C(=O)N[C@H](C(C)C)C(=O)N3CCC[C@H]3C(=O)N(C)CC(=O)N(C)[C@@H](C(C)C)C(=O)O[C@@H]2C)c(N)c1=O [actinomycin D, Actinomycin D] (I: T[dV]P[Sar][NMeV] / II: T[dV]P[Sar][NMeV]; ester I:1-I:C, II:1-II:C; linker I:N-II:N via Actinocin(9to1))
level at time molar at 2 h ([1]; female, NSG (NOD.Cg-Prkdc^scid Il2rg^tm1Wjl/SzJ), mouse, brain, iv, mice, 0.5 mg/kg i.v., after 2 h, read-out: brain tissue concentration): ~3 nM
level at time molar at 22 h ([1]; female, NSG (NOD.Cg-Prkdc^scid Il2rg^tm1Wjl/SzJ), mouse, brain, iv, mice, 0.5 mg/kg i.v., after 22 h, read-out: brain tissue concentration): ~1.2 nM
tissue level at time at 2 h ([1]; female, NSG (NOD.Cg-Prkdc^scid Il2rg^tm1Wjl/SzJ), mouse, iv, mice, 0.5 mg/kg i.v., 2 h, whole brain homogenate after cardiac perfusion with PBS, UPLC-MS/MS, mean of 3 mice, read-out: Brain Actinomycin D (total brain tissue concentration)): 4.1 ng/g
level at 2 h ([1]; female, NSG (NOD.Cg-Prkdc^scid Il2rg^tm1Wjl/SzJ), mouse, plasma, iv, mice, 0.5 mg/kg i.v., 2 h after administration, UPLC-MS/MS, mean of 3 mice, read-out: Plasma Actinomycin D): 22.7 ± 3.9 ng/mL
tissue level at time at 22 h ([1]; female, NSG, mouse, iv, mice, 0.5 mg/kg i.v., 22 h, whole brain homogenate after cardiac perfusion with PBS, UPLC-MS/MS, mean of 4 mice, read-out: Brain Actinomycin D (total brain tissue concentration)): 1.67 ± 0.77 ng/g
level at 22 h ([1]; female, NSG, mouse, plasma, iv, mice, 0.5 mg/kg i.v., 22 h after administration, UPLC-MS/MS, mean of 4 mice, read-out: Plasma Actinomycin D): 3.4 ± 1.45 ng/mL
Brain Actinomycin D (total brain tissue concentration) ([1]; mice, 0.5 mg/kg i.v., 2 h, whole brain homogenate after cardiac perfusion with PBS, UPLC-MS/MS, mean of 3 mice, 0.5 mg/kg): 4.14 ± 0.50 ng/g
Brain-to-Plasma Ratio ([1]; mice, 0.5 mg/kg i.v., 2 h, mean of 3 mice, 0.5 mg/kg): 0.18 and 0.18 ± 0.03
Brain-to-Plasma Ratio ([1]; mice, 0.5 mg/kg i.v., 2 h, mouse 1): 0.21
Brain-to-Plasma Ratio ([1]; mice, 0.5 mg/kg i.v., 2 h, mouse 2): 0.18
Brain-to-Plasma Ratio ([1]; mice, 0.5 mg/kg i.v., 2 h, mouse 3): 0.16
Brain-to-Plasma Ratio ([1]; mice, 0.5 mg/kg i.v., 22 h, mean of 4 mice): 0.53 ± 0.26
Brain-to-Plasma Ratio ([1]; mice, 0.5 mg/kg i.v., 22 h, mouse 4): 0.80
Brain-to-Plasma Ratio ([1]; mice, 0.5 mg/kg i.v., 22 h, mouse 5): 0.37
Brain-to-Plasma Ratio ([1]; mice, 0.5 mg/kg i.v., 22 h, mouse 6): 0.18
Brain-to-Plasma Ratio ([1]; mice, 0.5 mg/kg i.v., 22 h, mouse 7): 0.77
actinomycin D concentration in brain tissue homogenate ([1]; mouse #1, 0.5 mg/kg i.v., 2 h, homogenate at 0.1 g tissue/mL, UPLC-MS/MS): 0.409 ng/mL
1-month plasma stability at -25 °C, accuracy ([2]; High QC 60.0 ng/mL): 100.7%
1-month plasma stability at -25 °C, accuracy ([2]; Low QC 0.150 ng/mL): 95.6%
1-month plasma stability at -25 °C, accuracy ([2]; Medium QC 3.00 ng/mL): 98.3%
Freeze-and-thaw stability, accuracy ([2]; High QC 60.0 ng/mL): 87.6%
Freeze-and-thaw stability, accuracy ([2]; Low QC 0.150 ng/mL): 93.6%
Freeze-and-thaw stability, accuracy ([2]; Medium QC 3.00 ng/mL): 92.0%
cerebrospinal fluid concentration relative to corresponding plasma concentration [3]: approximately 10%
